The text below walks through data of paper PMC10671052, “Naphthyl-Substituted Indole and Pyrrole Carboxylic Acids as Effective Antibiotic Potentiators—Inhibitors of Bacterial Cystathionine γ-Lyase” (International Journal of Molecular Sciences, 2023).

Like-named read-outs stand apart in the source and are kept apart here.

By IC50 is commonly meant the concentration that gives 50% inhibition. What is called CC50 is the concentration giving 50% cytotoxicity. A word on the fraction unbound: it is the share of the substance not bound to proteins or other matrix. As a reminder, the efflux ratio is the permeability from basolateral to apical divided by that in the opposite direction, in the common usage. One may read the Papp A→B as how fast a substance crosses the layer from the apical side. By Papp B→A is commonly meant the apparent permeability from the basolateral to the apical side of a cell layer.

Series [1] addresses T1, human cystathionine-γ-lyase (hCSE) (Homo sapiens, UniProt P32929).
T1 construct: His6-TEV (N, cleaved yes); host or cells: E. coli
The series is described as follows: IC50 assay: inhibition of H2S production by purified hCSE, WSP5 fluorescent probe. The class given is biochemical. On the procedure:
(§1) Fluorescence spectrophotometry-based inhibitory activity toward purified bCSE and hCSE was measured in a 96-well nonbinding black plate (Greiner, Kremsmunster, Austria) at 100 μL of the reaction mixture per well. bCSE and hCSE (0.02 μM) were preincubated in a thermoshaker (Biosan, Riga, Latvia) (30 °C, 300 rpm) for 40 min in 50 mM sodium phosphate buffer (pH 8.0), supplemented with 10 μM pyridoxal 5′-phosphate (Sigma-Aldrich, St. Louis, MO, USA), 0.1% of Tween 20 (Sigma-Aldrich, St. Louis, MO, USA), and 1.2 μM Washington State Probe-5 (Cayman Chemical, Ann Arbor, MI, USA) (excitation: 500 nm, emission: 530 nm) at different concentrations of a tested inhibitor. The reaction was initiated by the addition of 100 μM L-cysteine (TCI, Chennai, Tamil Nadu, India) in 50 mM sodium phosphate buffer pH 8.0 to the reaction mixture, and the enzymatic activity was monitored for 12 h using a CLARIOstar Plus instrument (BMG LABTECH GmbH, Ortenberg, Germany). The 100 µM L-cysteine concentration used in the experiments corresponds to the maximal reported intracellular concentration in bacteria. The data were normalized to the positive and negative controls, and IC50 values were obtained by fitting to a four-parameter sigmoidal curve (inhibitor vs. response, variable slope model) in GraphPad Prism 8 software (GraphPad by Dotmatics, Boston, MA, USA). Each experiment was conducted with 2–3 technical replicates. IC50 values were means of at least two independent experiments.
(§2) For the production of S. aureus cystathionine-γ-lyase (bCSE) and of human cystathionine-γ-lyase (hCSE), plasmids pSUMO:saCSE (Addgene # 54336) and pNIC28-Bsa4 (Addgene # 42365) were employed. Cultivation of a competent E. coli cell strain (Thermo Fisher Scientific, Waltham, MA, USA), transformed with a target plasmid, was carried out on a selective solid medium with kanamycin. Bacterial cells harboring the plasmid vector were cultured at 37 °C and 180 rpm until OD600 = 0.65. Then, isopropyl β-D1-thiogalactopyranoside (IPTG) was added to a final concentration of 1 mM. To obtain bCSE, the cells were cultured for 3.5 h at 37 °C; to obtain hCSE, the cells were cultured for 18–20 h at 25 °C. After centrifugation, cells were resuspended in a buffer composed of 50 mM Tris–HCl, at a pH of 8.0, and 300 mM sodium chloride. After that, the cells were lysed by ultrasonication, with a pulse duration of 15 s and an interval between pulses of 15 s. The amplitude of the ultrasonic vibrations was 50% of the maximum. After lysis, samples were centrifuged for 15 min (20,000× g at 4 ℃). The pH of the supernatant obtained after the centrifugation was adjusted to 7.5 by the addition of a 1 M solution of Tris–OH. Then, the test sample was subjected to filtration through a polyethersulfone membrane with a pore diameter of 0.22 μm.

In another series the test system is HEK293 cells. The series is described as follows: HEK293 cytotoxicity assay (Alamar Blue). The format is cell-based. The settings on record: HEK293, 72 h. On the procedure:
The HEK 293 cell line was obtained from the European Collection of Authenticated Cell Cultures (ECACC, cat. # 85120602, Salisbury, UK). The cells were grown in a monolayer culture in Dulbecco’s Modified Eagle’s Medium (DMEM) (PanEco, Moscow, Russia), supplemented with 2 mM L-glutamine, 1% of a penicillin/streptomycin solution (Capricorn Scientific, Ebsdorfergrund, Germany), and 10% of heat inactivated fetal bovine serum (HyClone, Cytiva, Marlborough, MA, USA) in a humidified atmosphere containing 5% of CO2 at 37 °C (Binder, Germany). For the assay, HEK 293 cells were seeded in a 96-well plate (Corning, NY, USA) in 100 μL of the complete culture medium, at a final density of 2 × 10^3 cells/well, and were cultured for 24 h for proper attachment. Subsequently, the medium was removed, and the cells were exposed to a tested inhibitor at different concentrations for 72 h in 100 μL of the fresh complete culture medium. The sensitivity of the cells to the compounds was detected using the vital dye Alamar Blue (Invitrogen, San Diego, CA, USA). The Alamar Blue assay was performed according to the procedure described by O’Brien et al.. After incubation with the tested bCSE inhibitors, 10 μL of the Alamar Blue reagent was added into each well, the cell culture plates were returned to the humidified incubator, and the fluorescence was read after 3 h. The plates were exposed to an excitation light of 545 nm wavelength, and emission at 600 nm was measured on the CLARIOstar Plus (BMG LABTECH GmbH, Ortenberg, Germany). To determine half-maximal cytotoxic concentration (CC50), a four-parameter sigmoidal curve model (GraphPad Prism 8 software) was fitted to the measurement data.
Background: Resazurin is reduced to fluorescent resorufin, in cell work by metabolically active cells.

Series [2] deals with S. aureus cystathionine-γ-lyase (bCSE) (Staphylococcus aureus, UniProt A0A0H3K724). The series is described as follows: IC50 assay: inhibition of H2S production by purified bCSE, WSP5 fluorescent probe. The format is biochemical. On the procedure: as §1, §2
S. aureus cystathionine-γ-lyase (bCSE), sequence (A0A0H3K724 entry or part of it): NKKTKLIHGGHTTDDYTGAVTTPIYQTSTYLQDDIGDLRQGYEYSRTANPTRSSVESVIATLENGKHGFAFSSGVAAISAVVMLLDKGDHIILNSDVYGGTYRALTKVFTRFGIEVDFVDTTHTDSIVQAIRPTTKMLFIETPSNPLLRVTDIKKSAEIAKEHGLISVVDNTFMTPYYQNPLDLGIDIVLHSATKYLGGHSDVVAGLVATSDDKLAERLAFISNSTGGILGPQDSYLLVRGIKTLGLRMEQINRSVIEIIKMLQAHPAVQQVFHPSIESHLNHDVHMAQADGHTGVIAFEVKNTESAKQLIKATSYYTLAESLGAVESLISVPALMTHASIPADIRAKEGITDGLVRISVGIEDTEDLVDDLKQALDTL
The test system of series [3] is P. aeruginosa GIMC5016:PA1840/36/2015. The series is described as follows: MIC of antibiotics alone and with potentiators, clinical isolate.
For series [4], the system named is A. baumannii GIMC5509:ABT-52Ts19. The description is as above.
Method: Overnight (ON) culture of a specific strain was grown in the liquid Luria–Bertani nutrient medium (LB broth, BD Difco) for 18 h at 37 °C, with agitation at 180 rpm using an Innova 44R orbital shaker (Eppendorf, Hamburg, Germany). After a certain period, 50 µL of the ON culture was transferred into 5 mL of the LB medium and grown for 3 h at 37 °C with agitation. Growth in the liquid medium was assessed by means of turbidity of the suspension, measured using a Densi-La-Meter II densitometer (Erba Lachema s.r.o., Brno, Czech Republic). Then, the bacterial suspension was diluted to the concentration 10^6 cells/mL with sterile LB and used as a seed culture [38, 39].
For the assessment of MICs, 96-well microtiter plates were utilized at 200 µL of a medium per well. Each well was filled with 100 µL of the seed culture. After that, 10 µL of a solution of each tested synthetic compound (potentiators) was added into each experimental well. Finally, 90 µL of twofold serial dilutions of an antibiotic in a sterile LB was added into individual wells.
As a positive control, we set up wells with 100 µL of the bacterial culture and 100 µL of the sterile LB medium. […] Negative-control wells contained 200 µL of the sterile medium. The plates were incubated in a thermostat for 18–20 h at 37 °C. The bacterial growth was assessed as optical density at 600 nm on a CLARIOstar microplate reader (BMG LABTECH GmbH, Ortenberg, Germany)).
The next series deals with bCSE. Further details: method as in PMID 34112687. The following applies: NL2 is from ref 13; read-out: experimental inhibition constant; cited from earlier work.
The nature of a further series: in vitro. The format is in vitro ADME. The settings on record: human, plasma. On the procedure: Plasma protein binding was assessed using RED device inserts with built-in cellulose acetate dialysis membranes (molecular weight cutoff: 8 kDa). The final concentration of the test compound in human plasma was 5 μM. The samples were prepared by placing 300 μL of human plasma into the plasma compartment of the RED device and 500 μL of phosphate-buffered saline (pH 7.4) into the buffer compartment. The RED device was fixed to a shaker, placed in a CO2 (5%) incubator, and incubated for 6 h at 37 °C. After an equilibration step, 100 μL aliquots were taken from each compartment; 100 μL of plasma was added to the buffer compartment aliquot and 100 μL of buffer was added to the plasma compartment aliquot. After mixing, 600 μL of acetonitrile containing an internal standard was added. […] All compounds were tested in duplicate. Fraction bound fb was determined via the following equation: fb (%) = [1 − (Cb/Cp)] × 100, where Cb is the concentration of an analyte in the buffer compartment (μM), and Cp is the concentration of the analyte in the plasma compartment (μM).

The nature of another series: Caco-2 cell permeability. The format is in vitro ADME. The following applies: human. On the procedure: The culture medium consisted of high-glucose DMEM containing 10% of fetal bovine serum, 4 mM L-glutamine, 1% of a solution of nonessential amino acids (PanEco, Moscow, Russia), 100 U/mL penicillin, and 100 μg/mL streptomycin. The cells were maintained for 21 days at 37 °C and 5% CO2. The medium was refreshed every 3 days. A Lucifer yellow rejection assay was applied to determine cell monolayer integrity. […] The Lucifer yellow rejection value was calculated using the equation: LY % rejection = 100*(1−FIb/FIa), where FIb is the fluorescence in the basolateral compartment and FIa is the fluorescence in the apical compartment. […] Both apical-to-basolateral (AB) and basolateral-to-apical (BA) transport were assessed. For apical-to-basolateral transport, 0.3 mL of a test compound solution was added to the apical side, and 0.8 mL of HBSS with 0.5% of BSA was added to the basolateral side. For basolateral-to-apical transport, 0.8 mL of a test compound solution was added to the basolateral side and 0.3 mL of HBSS with 0.5% of BSA was added to the apical side. The Caco-2 cell monolayers were then incubated for 2 h at 37 °C. The pH values of the apical and basolateral compartments were 7.4. […] The supernatant was transferred to a vial and analyzed by liquid chromatography coupled with tandem MS (LC–MS/MS). The AB (or BA) apparent permeability coefficients (Papp, 10^–6 cm/s) were calculated according to the following formula [40, 41]: Papp = (V × ∆C)/(∆t × A × C0), where V is the volume of the receiver compartment (cm^3), C0 is the initial drug concentration in the donor compartment (μM), ∆C is the concentration in the receiver compartment (μM), ∆t is the incubation time (s), and A is the surface area of the cell monolayer (cm^2). An efflux ratio was calculated by dividing Papp (BA) by Papp (AB). All compounds were tested in duplicate.

[5] abbreviates: purified hCSE 0.02 μM, 100 μM L-cysteine, WSP5 probe, mean ± SD; read-out: IC50 biochemical assay hCSE.
[6] abbreviates: IC50 (uM), bCSE enzymatic IC50, rounded, repeated in Table S13.
The mark [7] stands for this setting: IC50 (uM), bCSE enzymatic IC50, rounded, repeated in Table S14.
Where [8] appears, read: IC50 biochemical assay bCSE, purified bCSE 0.02 μM, 100 μM L-cysteine, WSP5 probe, mean ± SD.
The mark [9] stands for this setting: P. aeruginosa GIMC5016:PA1840/36/2015, potentiator 50 µg/mL.
[10] abbreviates: A. baumannii GIMC5509:ABT-52Ts19, potentiator 50 µg/mL.

T1 sequence (P32929 whole entry): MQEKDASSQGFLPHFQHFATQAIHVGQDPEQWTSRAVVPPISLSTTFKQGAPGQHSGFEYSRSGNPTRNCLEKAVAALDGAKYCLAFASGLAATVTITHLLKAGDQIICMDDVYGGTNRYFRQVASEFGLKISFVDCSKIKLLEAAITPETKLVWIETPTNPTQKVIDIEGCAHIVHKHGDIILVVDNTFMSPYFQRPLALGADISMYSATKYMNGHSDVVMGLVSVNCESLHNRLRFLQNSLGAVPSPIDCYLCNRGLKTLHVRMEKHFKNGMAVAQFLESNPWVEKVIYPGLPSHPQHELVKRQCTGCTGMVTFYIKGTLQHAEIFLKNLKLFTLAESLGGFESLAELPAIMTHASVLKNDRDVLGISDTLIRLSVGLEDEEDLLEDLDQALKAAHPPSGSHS

Consider `O=C([O-])c1cn(Cc2cccc3ccccc23)c2ccccc12.[Na+]` [Compound 1c], for which the “activity toward hCSE (in words)” value in series [1] is listed as “did not show noticeable activity”. Moreover, the IC50 in series [1] (read-out: IC50 biochemical assay hCSE; purified hCSE 0.02 μM, 100 μM L-cysteine, WSP5 probe, mean ± SD) is greater than 500 µM. For the same molecule, half-maximal cytotoxicity with HEK293 cells (CC50) was put at 308 ± 75.5 µM. Moreover, in series [2], the “activity toward bCSE (in words)” value is “did not show noticeable activity”.
`O=C(O)c1ccc2ccn(Cc3cccc4ccccc34)c2c1` [Compound 4a]: the IC50 was greater than 500 µM in series [1] (setting [5]); 138 µM in series [2] (setting [6]); 138 µM in series [2] (setting [7]); 138 µM in series [2] (IC50 (uM), bCSE enzymatic IC50, rounded, repeated in Table S15); 138 ± 9 µM in series [2] (setting [8]). This molecule also came in with a CC50 in the series on HEK293 cells of 392 ± 21.8 µM.
Take `Cc1oc(Cn2ccc3ccc(Br)cc32)cc1C(=O)O` [NL2, 5-((6-bromo-1H-indol-1-yl)methyl)-2-methylfuran-3-carboxylic acid]: the “MIC of Tacillin in combination with potentiator” value in series [3] (P. aeruginosa GIMC5016:PA1840/36/2015, piperacillin + tazobactam, potentiator 50 µg/mL) was found to be 32 µg/mL; in series [4] (A. baumannii GIMC5509:ABT-52Ts19, piperacillin + tazobactam, potentiator 50 µg/mL), 128 µg/mL. Besides, the entries for the “MIC of Cefepim in combination with potentiator” value in series [3] (setting [9]) and in series [4] (setting [10]) were 64 µg/mL and 128 µg/mL, respectively. Further, the “MIC of Gentamicin in combination with potentiator” value in series [3] (setting [9]) was greater than 512 µg/mL. Also, the “MIC of Meropenem in combination with potentiator” value in series [3] (setting [9]) was found to be 8 µg/mL; in series [4] (setting [10]), 32 µg/mL. The IC50 in series [1] (setting [5]) is greater than 500 µM; in series [2] (setting [6]), 144 µM; in series [2] (setting [7]), 144 µM; in series [2] (setting [8]) it was 144 ± 9 µM. For the same molecule, the Ki at bCSE was 1.8 µM.
In the series “in vitro” (6 h, 5 μM, pH 7.4), `CC(C)NCC(O)COc1cccc2ccccc12` (stereo not drawn) [Propranolol, reference compound] displayed a Fraction bound fb of 85.8%. The same molecule had a fraction unbound at 6 h, 5 μM in “in vitro” (pH 7.4, Fraction bound fb) of 0.142. The efflux ratio at 2 h, 10 μM in the series “Caco-2 cell permeability” (Caco-2, Papp (BA) / Papp (AB)) worked out at 1.04. In “Caco-2 cell permeability” (Caco-2, 10 μM, 2 h, pH 7.4), the Papp A→B at 2 h, 10 μM stood at 30.2 ± 2.9 ×10⁻⁶ cm/s and the Papp B→A at 2 h, 10 μM stood at 31.6 ± 1.1 ×10⁻⁶ cm/s.
